Experimental data as given in patent US12077503B2, “Substituted cyclic amides and their use as herbicides” (FMC CORPORATION, priority 2015, dated 2024).
Like-named read-outs stand apart in the source and are kept apart here.

Columns and labels:
Format in all cases: in vivo
[1] = tested on: sedge, umbrella (small-flower umbrella sedge, Cyperus difformis); experiment: Test B flooded paddy test; details: Cyperus difformis, Flood, 250 g ai/ha, read-out: Sedge, Umbrella plant response rating
Outline: (§1)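 Flooding to 3 cm over soil accompanied treatment, which consisted of adding compound to the standing water around 2-leaf plants; depth was then maintained. Visual assessment versus controls followed at 13 to 15 d (scale 0–100, 0 meaning no effect).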

rice (Oryra sativa) = experiment: Test B flooded paddy test; details: Oryza sativa, Flood, 250 g ai/ha, read-out: Rice plant response rating
Outline: as §1

[2] = tested on: ducksalad (Heteranthera limosa); experiment: Test B flooded paddy test; details: Heteranthera limosa, Flood, 250 g ai/ha, read-out: Ducksalad plant response rating
Outline: as §1

[3] = tested on: barnyardgrass (Echinochloa crus-galli); experiment: Test B flooded paddy test; details: Echinochloa crus-galli, Flood, 250 g ai/ha, read-out: Barnyardgrass plant response rating
Outline: as §1

[4] = tested on: Galium (catchweed bedstraw, Galium aparine); experiment: Test A postemergence; details: Galium, post-emergence, 240 h; for pest or weed control at 125 g/ha: 125 g ai/ha
Outline: (§2)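 Preemergence directed soil spray on seeded pots, or postemergence application to plants 2–10 cm, one- to two-leaf. Solvent mixture non-phytotoxic, with surfactant. Scored ~10 d later, visually, 0–100 vs untreated.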

Kochia (Kochia scoparia) = experiment: Test A postemergence; details: Bassia scoparia, post-emergence, 240 h; for pest or weed control at 125 g/ha: 125 g ai/ha
Outline: as §2

[5] = tested on: ragweed (common ragweed, Ambrosia elatior); experiment: Test A postemergence; details: Ambrosia artemisiifolia, post-emergence, 240 h; for pest or weed control at 125 g/ha: 125 g ai/ha
Outline: as §2

[6] = tested on: wheat (Triticum aestivum); experiment: Test A postemergence; details: Triticum aestivum, post-emergence, 240 h; for plant injury at 125 g/ha: 125 g ai/ha
Outline: as §2

[7] = tested on: pigweed (Amaranthus retroflexus); experiment: Test A postemergence; details: Amaranthus retroflexus, post-emergence, 240 h; for pest or weed control at 125 g/ha: 125 g ai/ha
Outline: as §2

[8] = tested on: blackgrass (Alopecurus myosuroides); experiment: Test A postemergence; details: Alopecurus myosuroides, post-emergence, 240 h; for pest or weed control at 125 g/ha: 125 g ai/ha
Outline: as §2

corn (Zea mays) = experiment: Test A postemergence; details: Zea mays, post-emergence, 240 h; for plant injury at 125 g/ha: 125 g ai/ha
Outline: as §2

[9] = tested on: giant foxtail (Setaria faberii); experiment: Test A postemergence; details: Setaria faberi, post-emergence, 240 h; for pest or weed control at 125 g/ha: 125 g ai/ha
Outline: as §2

[10] = tested on: barnyardgrass (Echinochloa crus-galli); experiment: Test A postemergence; details: Echinochloa crus-galli, post-emergence, 240 h; for pest or weed control at 125 g/ha: 125 g ai/ha, read-out: Barnyardgrass plant response rating (0 to 100 scale, 0 no effect, 100 complete control)
Outline: as §2

[11] = tested on: ryegrass, Italian (Italian ryegrass, Lolium multiflorum); experiment: Test A postemergence; details: Lolium multiflorum, post-emergence, 240 h; for pest or weed control at 125 g/ha: 125 g ai/ha
Outline: as §2

[12] = scale of 0 to 100 where 0 is no effect and 100 is complete control
[13] = 0 to 100 scale where 0 is no effect and 100 is complete control

## CN1CC[C@H](c2cccc(OC(F)(F)F)c2)[C@@H](C(=O)Nc2cccc(Cl)c2F)C1=O [Compound 810]
[1]; [12]
  pest or weed control at 250 g/ha: 0%
Rice (Oryra sativa); [12]
  pest or weed control at 250 g/ha: 0%
[2]; [12]
  pest or weed control at 250 g/ha: 90%
[3]; [12]
  pest or weed control at 250 g/ha: 60%
[4]; postemergence, visual injury rating after approximately 10 d, read-out: Galium plant response rating (0 to 100 scale, 0 no effect, 100 complete control)
  pest or weed control at 125 g/ha: 0%
[4]; Postemergence, 31 g ai/ha, visual injury after approx. 10 d, 0 to 100 scale, 0 no effect, 100 complete control, read-out: Plant response rating, Galium
  pest or weed control at 31 g/ha: 0%
Kochia (Kochia scoparia); postemergence, visual injury rating after approximately 10 d, read-out: Kochia plant response rating (0 to 100 scale, 0 no effect, 100 complete control)
  pest or weed control at 125 g/ha: 0%
Kochia (Kochia scoparia); Postemergence, 31 g ai/ha, visual injury after approx. 10 d, 0 to 100 scale, 0 no effect, 100 complete control, read-out: Plant response rating, Kochia
  pest or weed control at 31 g/ha: 0%
[5]; postemergence, visual injury rating after approximately 10 d, read-out: Ragweed plant response rating (0 to 100 scale, 0 no effect, 100 complete control)
  pest or weed control at 125 g/ha: 0%
[5]; Postemergence, 31 g ai/ha, visual injury after approx. 10 d, 0 to 100 scale, 0 no effect, 100 complete control, read-out: Plant response rating, Ragweed
  pest or weed control at 31 g/ha: 0%
[6]; postemergence, visual injury rating after approximately 10 d, read-out: Wheat plant response rating (0 to 100 scale, 0 no effect, 100 complete control)
  plant injury at 125 g/ha: 0%
[6]; Postemergence, 31 g ai/ha, visual injury after approx. 10 d, 0 to 100 scale, 0 no effect, 100 complete control, read-out: Plant response rating, Wheat
  plant injury at 31 g/ha: 0%
[7]; postemergence, visual injury rating after approximately 10 d, read-out: Pigweed plant response rating (0 to 100 scale, 0 no effect, 100 complete control)
  pest or weed control at 125 g/ha: 0%
[7]; Postemergence, 31 g ai/ha, visual injury after approx. 10 d, 0 to 100 scale, 0 no effect, 100 complete control, read-out: Plant response rating, Pigweed
  pest or weed control at 31 g/ha: 0%
[8]; postemergence, visual injury rating after approximately 10 d, read-out: Blackgrass plant response rating (0 to 100 scale, 0 no effect, 100 complete control)
  pest or weed control at 125 g/ha: 0%
[8]; Postemergence, 31 g ai/ha, visual injury after approx. 10 d, 0 to 100 scale, 0 no effect, 100 complete control, read-out: Plant response rating, Blackgrass
  pest or weed control at 31 g/ha: 0%
Corn (Zea mays); postemergence, visual injury rating after approximately 10 d, read-out: Corn plant response rating (0 to 100 scale, 0 no effect, 100 complete control)
  plant injury at 125 g/ha: 0%
Corn (Zea mays); Postemergence, 31 g ai/ha, visual injury after approx. 10 d, 0 to 100 scale, 0 no effect, 100 complete control
  Corn plant response rating (crop injury, 0 = no effect, 100 = complete kill) at 31 g/ha: 0%
[9]; postemergence, visual injury rating after approximately 10 d, read-out: Foxtail, Giant plant response rating (0 to 100 scale, 0 no effect, 100 complete control)
  pest or weed control at 125 g/ha: 80%
[9]; Postemergence, 31 g ai/ha, visual injury after approx. 10 d, 0 to 100 scale, 0 no effect, 100 complete control, read-out: Plant response rating, Foxtail, Giant
  pest or weed control at 31 g/ha: 60%
[10]; postemergence, visual injury rating after approximately 10 d
  pest or weed control at 125 g/ha: 70%
[10]; Postemergence, 31 g ai/ha, visual injury after approx. 10 d, 0 to 100 scale, 0 no effect, 100 complete control, read-out: Plant response rating, Barnyardgrass
  pest or weed control at 31 g/ha: 40%
[11]; postemergence, visual injury rating after approximately 10 d, read-out: Ryegrass, Italian plant response rating (0 to 100 scale, 0 no effect, 100 complete control)
  pest or weed control at 125 g/ha: 0%
[11]; Postemergence, 31 g ai/ha, visual injury after approx. 10 d, 0 to 100 scale, 0 no effect, 100 complete control, read-out: Plant response rating, Ryegrass, Italian
  pest or weed control at 31 g/ha: 0%

## COc1cc([C@H]2CN(C)C(=O)[C@@H]2C(=O)Nc2ccccc2SC)ccc1F [Compound 1301]
[1]; [13]
  pest or weed control at 250 g/ha: 0%
Rice (Oryra sativa); [13]
  pest or weed control at 250 g/ha: 0%
[2]; [13]
  pest or weed control at 250 g/ha: 20%
[3]; [13]
  pest or weed control at 250 g/ha: 0%
[4]; Postemergence, visual rating about 10 d after treatment, read-out: Galium plant response rating (0 to 100 scale)
  pest or weed control at 125 g/ha: 20%
[4]; Postemergence, 500 g ai/ha, visual injury, 0 to 100 scale (0 no effect, 100 complete control), approx. 10 d, read-out: Plant response rating, Galium
  pest or weed control at 500 g/ha: 60%
Kochia (Kochia scoparia); Postemergence, visual rating about 10 d after treatment, read-out: Kochia plant response rating (0 to 100 scale)
  pest or weed control at 125 g/ha: 0%
Kochia (Kochia scoparia); Postemergence, 500 g ai/ha, visual injury, 0 to 100 scale (0 no effect, 100 complete control), approx. 10 d, read-out: Plant response rating, Kochia
  pest or weed control at 500 g/ha: 50%
[5]; Postemergence, visual rating about 10 d after treatment, read-out: Ragweed plant response rating (0 to 100 scale)
  pest or weed control at 125 g/ha: 0%
[5]; Postemergence, 500 g ai/ha, visual injury, 0 to 100 scale (0 no effect, 100 complete control), approx. 10 d, read-out: Plant response rating, Ragweed
  pest or weed control at 500 g/ha: 0%
[6]; Postemergence, visual rating about 10 d after treatment, read-out: Wheat plant response rating (0 to 100 scale)
  plant injury at 125 g/ha: 0%
[6]; Postemergence, 500 g ai/ha, visual injury, 0 to 100 scale (0 no effect, 100 complete control), approx. 10 d, read-out: Plant response rating, Wheat
  plant injury at 500 g/ha: 0%
[7]; Postemergence, visual rating about 10 d after treatment, read-out: Pigweed plant response rating (0 to 100 scale)
  pest or weed control at 125 g/ha: 0%
[7]; Postemergence, 500 g ai/ha, visual injury, 0 to 100 scale (0 no effect, 100 complete control), approx. 10 d, read-out: Plant response rating, Pigweed
  pest or weed control at 500 g/ha: 0%
[8]; Postemergence, visual rating about 10 d after treatment, read-out: Blackgrass plant response rating (0 to 100 scale)
  pest or weed control at 125 g/ha: 0%
[8]; Postemergence, 500 g ai/ha, visual injury, 0 to 100 scale (0 no effect, 100 complete control), approx. 10 d, read-out: Plant response rating, Blackgrass
  pest or weed control at 500 g/ha: 0%
Corn (Zea mays); Postemergence, visual rating about 10 d after treatment, read-out: Corn plant response rating (0 to 100 scale)
  plant injury at 125 g/ha: 0%
Corn (Zea mays); Postemergence, 500 g ai/ha, visual injury, 0 to 100 scale (0 no effect, 100 complete control), approx. 10 d
  Corn plant response rating (crop injury, 0 = no effect, 100 = complete kill) at 500 g/ha: 0%
[9]; Postemergence, visual rating about 10 d after treatment, read-out: Foxtail, Giant plant response rating (0 to 100 scale)
  pest or weed control at 125 g/ha: 20%
[9]; Postemergence, 500 g ai/ha, visual injury, 0 to 100 scale (0 no effect, 100 complete control), approx. 10 d, read-out: Plant response rating, Foxtail, Giant
  pest or weed control at 500 g/ha: 20%
[10]; Postemergence, visual rating about 10 d after treatment
  pest or weed control at 125 g/ha: 20%
[10]; Postemergence, 500 g ai/ha, visual injury, 0 to 100 scale (0 no effect, 100 complete control), approx. 10 d, read-out: Plant response rating, Barnyardgrass
  pest or weed control at 500 g/ha: 90%
[11]; Postemergence, visual rating about 10 d after treatment, read-out: Ryegrass, Italian plant response rating (0 to 100 scale)
  pest or weed control at 125 g/ha: 0%
[11]; Postemergence, 500 g ai/ha, visual injury, 0 to 100 scale (0 no effect, 100 complete control), approx. 10 d, read-out: Plant response rating, Ryegrass, Italian
  pest or weed control at 500 g/ha: 0%
